Laboratory results published in patent US12409206B2, “Use of cyclosporine analogues for treating fibrosis” (Hepion Pharmaceuticals, Inc., priority 2020, dated 2025).
Where two headings read alike, the source gives them in different places.

Tested on: human precision cut liver slices (PCLS)
Assay: PCLS RNA-Seq, Stimulation Protocol: TGFb/PDGF+CRV vs TGFb/PDGF+Vehicle
Format: cell-based
Conditions: for fold change in RNA: presence of exogenous TGFβ+PDGF-BB, universal in all donors
Experimental: PCLS were obtained from 5 human donors who underwent resection of liver cancer. Replicate slices were collected from healthy margins of the resections and cultured for 4 or 6 days depending on the experimental protocol. In the Nonstimulation Protocol slices were cultured for 6 days and treated for the entire period with DMSO vehicle or 5 μM CRV431. In the Stimulation Protocol slices were rested for 1 day and then administered the cytokines, TGFβ and PDGF-BB, for 3 days to stimulate inflammation and fibrosis. DMSO vehicle, CRV431 (1 and 5 μM), Alk5i (10 μM), obeticholic acid (5 μM), elafibranor (5 μM), resmetirom ([…]), and Aramchol (5 μM) were administered individually as drug treatments in the Stimulation Protocol concurrent with TGFβ+PDGF-BB. Culture medium treatments were replaced daily.
Four types of evaluations were conducted on the PCLS: (a) secretion of inflammation and fibrosis biomarkers into the culture medium, (b) histological staining and quantitation of Sirius red as a measure of tissue fibrosis, (c) gene expression of inflammation and fibrosis biomarkers by RT-PCR, and (d) RNA sequencing (RNA-Seq) of the complete transcriptome. Each of the four types of evaluation is described below: • (a) Biomarker secretion. Spent culture medium was collected daily from duplicate slices for each treatment. ELISAs were used to quantify secretion of monocyte chemoattractant protein (MCP-1), interleukin-6 (IL-6), tissue inhibitor of metalloproteinase-1 (TIMP1), hyaluronic acid, fibronectin, and collagen 1α1. For each donor the mean level of biomarker secretion in each treatment group was expressed as a percentage change relative to DMSO vehicle, the percentages averaged for all donors, and finally the mean daily percentage change calculated from all days of evaluation. Results are shown in FIG. 8A (secreted markers-% daily average change). • (b) Sirius red histological staining. […] Sirius red was quantified morphometrically in the histological sections as the percentage area with Sirius red staining in 10 sections from each treatment. In the Nonstimulation Protocol the quantity of Sirius red staining was expressed relative to the vehicle group. In the Stimulation Protocol the quantity of Sirius red staining was expressed relative to nonstimulated PCLS (0%) and TGFβ+PDGF-BB-stimulated+vehicle PCLS (100%). Results are shown in FIG. 8B (Sirius red staining for tissue fibrosis). • (c) Gene expression by RT-PCR. RNA was isolated from duplicate liver slices per treatment at the end of the experiments and evaluated by RT-PCR for 5 markers of inflammation and fibrosis: MCP-1, IL-6, TIMP1, αSMA, and collagen 1α1. β actin was used as a reference gene to calculate relative levels of each target gene RNA. […] Results are shown in FIG. 8C (gene expression by RT-PCR). • (d) Gene expression by RNA-Seq. RNA sequencing of the complete transcriptome (30 million reads per sample) was conducted on vehicle and 5 μM CRV431 treatment groups from 3 donors both from the Nonstimulation and Stimulation Protocols. Data were analyzed by bioinformatics software programs to identify genes that were differentially expressed between vehicle and CRV431 treatments.
For the evaluation done for (d), 12 samples corresponding to 3 different donor slides which underwent 4 different treatments were studied. the comparisons carried out in this analysis are: (1) TGFb/PDGF+CRV vs TGFb/PDGF+Vehicle (V), and (2) Non-stimulated+CRV vs Non-stimulated+Vehicle. […] Table 1. Samples for evaluation (d)
Quality Control check was performed in all samples. All samples had more than 30 million reads and a quality score average >35 for almost all the bases in the sequences. The duplication levels are expected as it is RNA sequencing, and different copies of the same RNA are expected to be present in the samples. All samples had good amount of reads and quality, therefore all samples passed the QC checked and were included in the analysis. […]

CC[C@@H]1NC(=O)[C@H]([C@H](O)[C@H](C)CCCCCCNC(C)=O)N(C)C(=O)[C@H](C(C)C)N(C)C(=O)[C@H](CC(C)C)N(C)C(=O)[C@H](CC(C)C)N(C)C(=O)[C@@H](C)NC(=O)[C@H](C)NC(=O)[C@H](CC(C)C)N(C)C(=O)[C@H](C(C)C)NC(=O)[C@H](CC(C)C)N(C)C(=O)[C@@H](C)N(C)C1=O [CRV431] gave a log2FoldChange of 1.025, a log2FoldChange (gene AC009053.1, TGFb/PDGF+CRV vs TGFb/PDGF+Vehicle) of 1.194 and a log2FoldChange (gene AC134772.2, TGFb/PDGF+CRV vs TGFb/PDGF+Vehicle) of −4.561. It also gave a log2FoldChange (gene ADH1B, TGFb/PDGF+CRV vs TGFb/PDGF+Vehicle) of 2.156, a log2FoldChange (gene ADH1C, TGFb/PDGF+CRV vs TGFb/PDGF+Vehicle) of 1.869 and a log2FoldChange (gene ADH4, TGFb/PDGF+CRV vs TGFb/PDGF+Vehicle) of 2.123. It also gave a log2FoldChange (gene ADH6, TGFb/PDGF+CRV vs TGFb/PDGF+Vehicle) of 1.903, a log2FoldChange (gene ADIRF, TGFb/PDGF+CRV vs TGFb/PDGF+Vehicle) of 1.402 and a log2FoldChange (gene APLNR, TGFb/PDGF+CRV vs TGFb/PDGF+Vehicle) of 0.844. It also gave a log2FoldChange (gene ASPG, TGFb/PDGF+CRV vs TGFb/PDGF+Vehicle) of 0.91, a log2FoldChange (gene ATP13A4, TGFb/PDGF+CRV vs TGFb/PDGF+Vehicle) of −3.082 and a log2FoldChange (gene C7, TGFb/PDGF+CRV vs TGFb/PDGF+Vehicle) of 0.739. It also gave a log2FoldChange (gene CA11, TGFb/PDGF+CRV vs TGFb/PDGF+Vehicle) of −1.573, a log2FoldChange (gene CBFA2T2, TGFb/PDGF+CRV vs TGFb/PDGF+Vehicle) of 1.299 and a log2FoldChange (gene CD93, TGFb/PDGF+CRV vs TGFb/PDGF+Vehicle) of −0.613. It also gave a log2FoldChange (gene CHST1, TGFb/PDGF+CRV vs TGFb/PDGF+Vehicle) of −1.087, a log2FoldChange (gene COL5A3, TGFb/PDGF+CRV vs TGFb/PDGF+Vehicle) of −0.842 and a log2FoldChange (gene CXADR, TGFb/PDGF+CRV vs TGFb/PDGF+Vehicle) of 1.61. The log2FoldChange (gene CYP4A11, TGFb/PDGF+CRV vs TGFb/PDGF+Vehicle) was 1.611, the log2FoldChange (gene CYP26A1, TGFb/PDGF+CRV vs TGFb/PDGF+Vehicle) was −1.283 and the log2FoldChange (gene CYP26B1, TGFb/PDGF+CRV vs TGFb/PDGF+Vehicle) was −0.656. For the same molecule, the log2FoldChange (gene DCHS1, TGFb/PDGF+CRV vs TGFb/PDGF+Vehicle) was −0.686, the log2FoldChange (gene DLL4, TGFb/PDGF+CRV vs TGFb/PDGF+Vehicle) was −0.69 and the log2FoldChange (gene DUOX2, TGFb/PDGF+CRV vs TGFb/PDGF+Vehicle) was −2.182. The “fold change in RNA” value (gene DUOX2) was −4.5 fold, the log2FoldChange (gene DVL1, TGFb/PDGF+CRV vs TGFb/PDGF+Vehicle) was 0.635 and the log2FoldChange (gene ENSG00000283623 (symbol NA), TGFb/PDGF+CRV vs TGFb/PDGF+Vehicle) was −5.759. It also gave a log2FoldChange (gene ERVK13-1, TGFb/PDGF+CRV vs TGFb/PDGF+Vehicle) of −1.125, a log2FoldChange (gene ESAM, TGFb/PDGF+CRV vs TGFb/PDGF+Vehicle) of −0.573 and a log2FoldChange (gene ESM1, TGFb/PDGF+CRV vs TGFb/PDGF+Vehicle) of −1.401. For the same molecule, the “fold change in RNA” value (gene ESMI) was −2.6 fold, the log2FoldChange (gene ESR1, TGFb/PDGF+CRV vs TGFb/PDGF+Vehicle) was 3.688 and the log2FoldChange (gene F2RL3, TGFb/PDGF+CRV vs TGFb/PDGF+Vehicle) was −0.711. It also gave a log2FoldChange (gene GLYATL1, TGFb/PDGF+CRV vs TGFb/PDGF+Vehicle) of 1.438, a log2FoldChange (gene GPR4, TGFb/PDGF+CRV vs TGFb/PDGF+Vehicle) of −0.9 and a log2FoldChange (gene GRAP, TGFb/PDGF+CRV vs TGFb/PDGF+Vehicle) of −0.772. It also gave a log2FoldChange (gene HIST2H2AA4, TGFb/PDGF+CRV vs TGFb/PDGF+Vehicle) of −7.504, a log2FoldChange (gene IGHV4-61, TGFb/PDGF+CRV vs TGFb/PDGF+Vehicle) of 7.957 and a log2FoldChange (gene IGLON5, TGFb/PDGF+CRV vs TGFb/PDGF+Vehicle) of −0.851. It also gave a log2FoldChange (gene ISLR2, TGFb/PDGF+CRV vs TGFb/PDGF+Vehicle) of −1.27, a log2FoldChange (gene KDM6A, TGFb/PDGF+CRV vs TGFb/PDGF+Vehicle) of 0.785 and a log2FoldChange (gene LAMA4, TGFb/PDGF+CRV vs TGFb/PDGF+Vehicle) of −0.939. The log2FoldChange (gene LIMS3, TGFb/PDGF+CRV vs TGFb/PDGF+Vehicle) was −1.705, the log2FoldChange (gene LOXL2, TGFb/PDGF+CRV vs TGFb/PDGF+Vehicle) was −0.948 and the “fold change in RNA” value (gene LOXL2) was −1.9 fold. The log2FoldChange (gene MCAM, TGFb/PDGF+CRV vs TGFb/PDGF+Vehicle) was −0.841, the log2FoldChange (gene MEF2C, TGFb/PDGF+CRV vs TGFb/PDGF+Vehicle) was −1.013 and the log2FoldChange (gene MEG3, TGFb/PDGF+CRV vs TGFb/PDGF+Vehicle) was −0.853. For the same molecule, the log2FoldChange (gene MRC2, TGFb/PDGF+CRV vs TGFb/PDGF+Vehicle) was −0.773, the log2FoldChange (gene MROH2A, TGFb/PDGF+CRV vs TGFb/PDGF+Vehicle) was 3.641 and the log2FoldChange (gene MT-CO1, TGFb/PDGF+CRV vs TGFb/PDGF+Vehicle) was −0.85. The log2FoldChange (gene NID2, TGFb/PDGF+CRV vs TGFb/PDGF+Vehicle) was −0.755, the log2FoldChange (gene NXPH4, TGFb/PDGF+CRV vs TGFb/PDGF+Vehicle) was −0.808 and the log2FoldChange (gene PAN2, TGFb/PDGF+CRV vs TGFb/PDGF+Vehicle) was 1.019. For the same molecule, the log2FoldChange (gene PANK3, TGFb/PDGF+CRV vs TGFb/PDGF+Vehicle) was 0.687, the log2FoldChange (gene PCDH12, TGFb/PDGF+CRV vs TGFb/PDGF+Vehicle) was −0.741 and the log2FoldChange (gene PHF8, TGFb/PDGF+CRV vs TGFb/PDGF+Vehicle) was 0.709. The log2FoldChange (gene PKLR, TGFb/PDGF+CRV vs TGFb/PDGF+Vehicle) was 2.127, the log2FoldChange (gene PLXNA2, TGFb/PDGF+CRV vs TGFb/PDGF+Vehicle) was 1.326 and the log2FoldChange (gene POU6F1, TGFb/PDGF+CRV vs TGFb/PDGF+Vehicle) was −1.716. The log2FoldChange (gene PPP1R16B, TGFb/PDGF+CRV vs TGFb/PDGF+Vehicle) was −1.016, the log2FoldChange (gene RALGPS2, TGFb/PDGF+CRV vs TGFb/PDGF+Vehicle) was 0.836 and the log2FoldChange (gene RBMXL1, TGFb/PDGF+CRV vs TGFb/PDGF+Vehicle) was −8.265. The log2FoldChange (gene RCCD1, TGFb/PDGF+CRV vs TGFb/PDGF+Vehicle) was −1.838, the “fold change in RNA” value (gene RCCD1) was −3.6 fold and the log2FoldChange (gene RHCG, TGFb/PDGF+CRV vs TGFb/PDGF+Vehicle) was −0.927. The log2FoldChange (gene RPS7P1, TGFb/PDGF+CRV vs TGFb/PDGF+Vehicle) was 2.668, the log2FoldChange (gene SLC4A8, TGFb/PDGF+CRV vs TGFb/PDGF+Vehicle) was −2.641 and the log2FoldChange (gene SLC26A6, TGFb/PDGF+CRV vs TGFb/PDGF+Vehicle) was −0.692. It also gave a log2FoldChange (gene SLC39A5, TGFb/PDGF+CRV vs TGFb/PDGF+Vehicle) of 1.92, a log2FoldChange (gene SMC5, TGFb/PDGF+CRV vs TGFb/PDGF+Vehicle) of 0.799 and a log2FoldChange (gene STRA6, TGFb/PDGF+CRV vs TGFb/PDGF+Vehicle) of −1.639. The “fold change in RNA” value (gene STRA6) was −3.1 fold, the log2FoldChange (gene TDO2, TGFb/PDGF+CRV vs TGFb/PDGF+Vehicle) was 0.916 and the log2FoldChange (gene TMEM70, TGFb/PDGF+CRV vs TGFb/PDGF+Vehicle) was 1.062. For the same molecule, the log2FoldChange (gene TTYH2, TGFb/PDGF+CRV vs TGFb/PDGF+Vehicle) was −1.114, the “fold change in RNA” value (gene UBD/FAT10) was −2.0 fold and the log2FoldChange (gene UBD, TGFb/PDGF+CRV vs TGFb/PDGF+Vehicle) was −1.035. For the same molecule, the log2FoldChange (gene VWA8, TGFb/PDGF+CRV vs TGFb/PDGF+Vehicle) was 1.514, the log2FoldChange (gene ZC3H10, TGFb/PDGF+CRV vs TGFb/PDGF+Vehicle) was 1.022 and the log2FoldChange (gene ZDHHC20, TGFb/PDGF+CRV vs TGFb/PDGF+Vehicle) was 1.207. It also gave a log2FoldChange (gene ZNF461, TGFb/PDGF+CRV vs TGFb/PDGF+Vehicle) of 1.391.
